In patent publication US8703066B2, “Sterilization system and method” (Noxilizer, Inc., priority 2004, dated 2014):

Columns and labels:
B. subtilis (vegetative) = experiment: Portable system (blood storage container) sterilization of stainless steel coupons; format: cell-based, Bacillus subtilis; settings: fifteen minute sterilization cycle; NO from acidified diazeniumdiolate; 1 ATM; stainless steel coupon, at least 10^8 CFU/ml
Excerpt: (§1) Similar to Example 1, a portable system is devised using blood storage containers and other laboratory items. In this construct, a blood storage container (Nexell, Irvine, Calif.; Lifecell PL732 plastic tissue culture flask) serves as the sterilization chamber. It has multiple ports, is easily attached to tubing or other chambers, and is easily cut and heat sealed for insertion and removal of contaminated/sterilized samples. The heat seal is strong and holds well at pressure, even though 1 ATM of pressure is used experimentally. Two 60 ml syringes connected to each other and a line of tubing by a three-way stopcock are employed to mix acidic buffer in one syringe with NO-releasing diazeniumdiolate in the other syringe. The tubing is connected to the blood container/sterilization chamber.
(§2) The stopcock is turned so that the acidic buffer can be added to the syringe containing the diazeniumdiolate. The valve is immediately closed to the buffer syringe and opened to the sterilization chamber. The 300 cc sterilization chamber inflates in about 15 seconds. Experiments are performed as described above, except that the devised system is used instead of the pressure vessel.
The test organisms are cultured overnight in BHI. The cultures contained at least 10^8 CFU/ml (100-fold greater than FDA testing guidelines) based on standardized ABS595 curves for each organism. […]

[1] = tested on: Staphylococcus aureus (str 21769); experiment: Pressure vessel sterilization of contaminated stainless steel coupons with NO gas; format: cell-based; settings: five minute sterilization cycle; pure NO at atmospheric pressure; stainless steel coupons dipped in at least 10^8 CFU/ml
Excerpt: (§3) A glass pressure vessel is connected to a scrubbed NO gas tank source. The pressure vessel is purged five times with Argon gas to eliminate atmospheric oxygen (preventing formation of NO2.) and an additional three purges of NO are used to ensure a pure NO atmosphere and consistent results of bactericidal activity. To test the sterilization method: Bacillus subtilis var niger 9372 is used (after obtaining >80% endospore formation; a standard for ethylene oxide and autoclave test sterilization), as well as organisms commonly found on the epidermis: Staphylococcus aureus (str 21769) and Staphylococcus epidermides (str 21977), and the enteric organisms: Klebsiella pneumoniae (str 21991) and Serratia marcesens (str 21140). This particular Serratia strain has been found in previous studies to be one of the most resistant bacteria to the bactericidal effects of NO in culture (Raulli et al., 2002).
(§4) The organisms are cultured overnight in BHI. The cultures contained at least 10^8 CFU/ml based on standardized ABS595 curves for each organism. Stainless steel coupons, 3×1 cm, are dipped in the cultures, and either dried in ambient air first or placed in the pressure vessel still wet from the culture dip. The coupons are exposed to NO gas at atmospheric pressure for decreasing time periods starting with 45 min and working back to 5 min. Control samples are handled identically, except the pressure vessel was gassed with nitrogen.
(§5) The sealed vessel is carefully opened in a laminar flow hood after all the NO had been purged with Argon. The samples are removed aseptically with sterilized tongs and placed in culture tubes containing sterile BHI media. The samples are incubated in a vigorously shaking waterbath at 35° C. The samples are observed (digitally photographed) 24 hrs later, placed back in the waterbath and are measured for absorbance 72 hrs later. The controls had >10^8 CFU/ml after 24 hrs.

[2] = tested on: Serratia marcesens (str 21140); experiment: as above; format: cell-based; settings: five minute sterilization cycle; pure NO at atmospheric pressure; stainless steel coupons dipped in at least 10^8 CFU/ml
Excerpt: as §3, §4, §5

[3] = tested on: Staphylococcus epidermides (str 21977); experiment: as above; format: cell-based; settings: five minute sterilization cycle; pure NO at atmospheric pressure; stainless steel coupons dipped in at least 10^8 CFU/ml
Excerpt: as §3, §4, §5

[4] = tested on: Bacillus subtilis var niger 9372; experiment: as above; format: cell-based; settings: five minute sterilization cycle; pure NO at atmospheric pressure; stainless steel coupons dipped in at least 10^8 CFU/ml
Excerpt: as §3, §4, §5

[5] = tested on: Klebsiella pneumoniae (str 21991); experiment: as above; format: cell-based; settings: five minute sterilization cycle; pure NO at atmospheric pressure; stainless steel coupons dipped in at least 10^8 CFU/ml
Excerpt: as §3, §4, §5

Serratia marcesens = experiment: Portable system (blood storage container) sterilization of stainless steel coupons; format: cell-based; settings: fifteen minute sterilization cycle; NO from acidified diazeniumdiolate; 1 ATM; stainless steel coupon, at least 10^8 CFU/ml
Excerpt: as §1, §2
(§6) The test organisms are cultured overnight in BHI. The cultures contained at least 10^8 CFU/ml (100-fold greater than FDA testing guidelines) based on standardized ABS595 curves for each organism. Stainless steel coupons, 3×1 cm, are dipped in the cultures, and either dried in ambient air first or placed in the pressure vessel still wet from the culture dip. The dried samples are dipped in sterile BHI media before being placed in the sterilization chamber.

[6] = tested on: Bacillus subtilis (spore); experiment: as above; format: cell-based; settings: fifteen minute sterilization cycle; NO from acidified diazeniumdiolate; 1 ATM; stainless steel coupon, at least 10^8 CFU/ml
Excerpt: as §1, §2, §6

[7] = tested on: Staphylococcus epidermides; experiment: as above; format: cell-based; settings: fifteen minute sterilization cycle; NO from acidified diazeniumdiolate; 1 ATM; stainless steel coupon, at least 10^8 CFU/ml
Excerpt: as §1, §2, §6

[8] = tested on: sporulated B. subtilis var. niger; experiment: Sterilization with varying quantities of delivered nitric oxide, contaminated stainless steel strips; format: cell-based; settings: 5%, 2.5% and 1% NO in air, five minutes, culture in LB 48 hours then plating
Excerpt: A blood storage container (Nexell, Irvine, Calif.; Lifecell PL732 plastic tissue culture flask) is used as the sterilization chamber. Strips of stainless steel are dipped in 10^6 CFU/ml sporulated B. subtilis var. niger (as determined by ABS595 standardization curves). The strips are allowed to air dry, placed in the sterilization chamber, and then the sterilization chamber is heat sealed. The sterilization chamber is evacuated using a syringe and controlling air flow with the sterilization chamber valves. A known quantity of air is added to the vessel using a graduated syringe.
An NO-generating donor compound is placed in a 7 cc gas generation chamber. The gas generation chamber is attached to the storage container through luer lock connectors. The liquid activator, 3.0N HCl is added to the gas generation chamber and the generated gas is allowed to flow into the sterilization chamber. After a brief generation period, the gas is sealed in the sterilization chamber using a compression valve.
Varying quantities of NO gas, namely 10%, 5%, 2.5% and 1% NO, are tested for their efficacy in the sterilization chamber. The quantity (%) of NO gas generated and added to the sterilization chamber is calculated from the number of moles of NO required to be generated to result in the desired percentage of NO. […]

cocktail of bacteria = experiment: Humidity effects: sterilization of sealed and unsealed dry stainless steel coupons; format: cell-based; settings: 15 min sterilization cycle at 1 ATM, 2/2 trials
Experimental: Several humidifying paradigms and the ability to sterilize through a gas sterilization seal pouch is tested. A cocktail of bacteria is used, all grown to about 10^8 CFU/ml and mixed in equal volume. Stainless steel coupons are dipped, allowed to dry, and subject to one of three methods. Method A samples are wrapped in a moist Kimwipe, Method B samples are left dry, and Method C samples are sealed, dry, in a V. Mueller™ Dual Peel Seal Pouch, designed for gas and autoclave sterilizations. Samples from methods B and C are placed in the sterilization chamber with a moist Kimwipe, which is placed in the chamber so as to insure maximal separation of the Kimwipe and the sample to be sterilized. The chamber is re-sealed carefully so as not to disturb the positioning of the samples relative to the Kimwipe. The samples are subject to a 15 min sterilization cycle at 1 ATM, removed under sterile conditions, and the samples are placed in BHI media as described above. Control samples are handled identically except for the chamber being gassed with […]. All controls reached greater than […] total CFU/ml in 24 hrs as determined by ABS595 standardization curves.

[9] = tested on: bacterial cocktail containing B. subtilis, S. marcesens, and S. epidermides; experiment: Sterilization of medical materials (tubing, needle); format: cell-based; settings: 15 min sterilization cycle, about 10^8 total CFU/ml
Experimental: An additional study is performed to test medically relevant materials such as needles and plastic tubing. Teflon (⅛′ ID), polyethylene (1.77 mm ID), vinyl (0.5 mm ID) tubing and a 30 ga. disposable needle are dipped in a bacterial cocktail containing B. subtilis, S. marcesens, and S. epidermides at about 10^8 total CFU/ml The samples are placed in the sterilization chamber and sealed. In each case, the lumen of the tubing or contained at least some visually confirmed inoculum. […] The controls for each material reached at least 10^6 total CFU/ml in 24 hrs as determined by ABS595 standardization curves.

[N]=O [NO, nitric oxide]
Killed (trials) (B. subtilis (vegetative)): 2/2 Killed | Killed (trials with no bacterial growth / trials) [1]: 3/3 Killed | Killed (trials with no bacterial growth / trials) [2]: 3/3 Killed | Killed (trials with no bacterial growth / trials) [3]: 3/3 Killed | Killed (trials with no bacterial growth / trials) [4]: 3/3 Killed | Killed (trials with no bacterial growth / trials) [5]: 3/3 Killed | Killed (trials) (Serratia marcesens): 3/3 Killed | Killed (trials) [6]: 2/2 Killed | Killed (trials) [7]: 3/3 Killed | killing of 10^6 CFU/ml sporulated B. subtilis var. niger [8]: effective at killing | Killed (trials) (cocktail of bacteria; Method A Moist Kimwipe Wrap): Killed | Killed (trials) (cocktail of bacteria; Method B Dry sample, moist Kimwipe apart in chamber): Killed | Killed (trials) (cocktail of bacteria; Method C Dry, Sealed Sample in Dual Peel Seal Pouch, moist Kimwipe apart in chamber): Killed | Killed (trials) ([9]; Disposable Needle 30 ga.): 2/2 Killed | Killed (trials) ([9]; Polyethylene Tubing 1.77 mm ID): 2/2 Killed | Killed (trials) ([9]; Teflon Tubing 1/8' ID): 2/2 Killed | Killed (trials) ([9]; Vinyl Tubing 0.5 mm ID): 2/2 Killed
